# Experimental data published in US7759345B2, “Antitumoral derivatives of ET-743” (priority 2001, dated 2010).
# Assays:
# A-549 = assay: Inhibition of cells growth by colorimetric assay (SRB), A-549; type: cell-based; settings: for GI50 / LC50 (concentration for 50% cell killing): Homo sapiens, A549, 48 h; for GI50 / A-549 TGI: SRB assay, 48 hours exposure; for GI50: read-out: A-549 GI50; for LC50 (concentration for 50% cell killing): read-out: A-549 LC50, SRB assay, 48 hours exposure
# Procedure, shortened: (§1)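 Human cancer cells (5×10^3/well) attached 18 h in RPMI 1640 10% FBS, then exposed 48 h at 37°C to compounds from 10 to 10^−8 μg/ml in DMSO/EtOH/PBS. TCA-fixed, SRB-stained, OD read at 490 nm; GI, TGI and LC derived from triplicate wells.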
# SK-MEL-28 = assay: Inhibition of cells growth by colorimetric assay (SRB), SK-MEL-28; type: cell-based; settings: for GI50: read-out: MEL-28 GI50
# Procedure, shortened: as §1
# HT-29 = assay: Inhibition of cells growth by colorimetric assay (SRB), HT-29; type: cell-based; settings: for GI50 / LC50 (concentration for 50% cell killing): Homo sapiens, HT-29, 48 h; for GI50 / HT-29 TGI: SRB assay, 48 hours exposure; for GI50: read-out: HT-29 GI50; for LC50 (concentration for 50% cell killing): read-out: HT-29 LC50, SRB assay, 48 hours exposure
# Procedure, shortened: as §1
# LNCaP = assay: Inhibition of cells growth by colorimetric assay (SRB), LNCaP; type: cell-based
# Procedure: (§2) 2°.—Inhibition of Cells Growth by Colorimetric Assay.
# (§3) A colorimetric type of assay, using sulforhodamine B (SRB) reaction has been adapted for a quantitative measurement of cell growth and viability [following the technique described by Philip Skehan, et al. (1990), New colorimetric cytotoxicity assay for anticancer drug screening, J. Natl. Cancer Inst., 82:1107-1112]
# (§4) This form of the assay employs 96 well cell culture microplates of 9 mm diameter (Faircloth, 1988; Mosmann, 1983). Most of the cell lines are obtained from American Type Culture Collection (ATCC) derived from different human cancer types.
# (§5) Cells are maintained in RPMI 1640 10% FBS, supplemented with 0.1 g/l penicillin and 0.1 g/l streptomycin sulfate and then incubated at 37° C., 5% CO2 and 98% humidity. For the experiments, cells were harvested from subconfluent cultures using trypsin and resuspended in fresh medium before plating.
# (§6) Cells are seeded in 96 well microtiter plates, at 5×10^3 cells per well in aliquots of 195 μl medium, and they are allowed to attach to the plate surface by growing in drug free medium for 18 hours. Afterward, samples are added in aliquots of 5 μl in a ranging from 10 to 10^−8 μg/ml, dissolved in DMSO/EtOH/PBS (0.5:0.5:99). After 48 hours exposure, the antitumor effect are measured by the SRB methodology: cells are fixed by adding 50 μl of cold 50% (wt/vol) trichloroacetic acid (TCA) and incubating for 60 minutes at 4° C. Plates are washed with deionized water and dried. One hundred μl of SRB solution (0.4% wt/vol in 1% acetic acid) is added to each microtiter well and incubated for 10 minutes at room temperature. Unbound SRB is removed by washing with 1% acetic acid. Plates are air dried and bound stain is solubilized with Tris buffer. Optical densities are read on a automated spectrophotometric plate reader at a single wavelength of 490 nm.
# (§7) The values for mean+/−SD of data from triplicate wells are calculated. Some parameters for cellular responses can be calculated: GI=growth inhibition, TGI=total growth inhibition (cytostatic effect) and LC=cell killing (cytotoxic effect).
# (§8) Obtained results may predict the usefulness of a certain drug as a potential cancer treatment. For this technique, compounds which show GI50 values smaller than 10 μg/ml are selected to continue with further studies. GI50's data allow to predict that not only could a drug be cystostatic, but also it could have a potential in terms of tumor reduction.
# LoVo-Dox = assay: Inhibition of cells growth by colorimetric assay (SRB), LoVo-Dox; type: cell-based
# Procedure: as §2, §3, §4, §5, §6, §7, §8
# HMEC1 = assay: Inhibition of cells growth by colorimetric assay (SRB), HMEC1; type: cell-based
# Procedure: as §2, §3, §4, §5, §6, §7, §8
# IGROV-1 = assay: Inhibition of cells growth by colorimetric assay (SRB), IGROV-1; type: cell-based
# Procedure: as §2, §3, §4, §5, §6, §7, §8
# SK-BR-3 = assay: Inhibition of cells growth by colorimetric assay (SRB), SK-BR-3; type: cell-based
# Procedure: as §2, §3, §4, §5, §6, §7, §8
# DU-145 = assay: Inhibition of cells growth by colorimetric assay (SRB), DU-145; type: cell-based
# Procedure: as §2, §3, §4, §5, §6, §7, §8
# K-562 = assay: Inhibition of cells growth by colorimetric assay (SRB), K-562; type: cell-based
# Procedure: as §2, §3, §4, §5, §6, §7, §8
# LoVo = assay: Inhibition of cells growth by colorimetric assay (SRB), LoVo; type: cell-based
# Procedure: as §2, §3, §4, §5, §6, §7, §8
# PANC-1 = assay: Inhibition of cells growth by colorimetric assay (SRB), PANC-1; type: cell-based
# Procedure: as §2, §3, §4, §5, §6, §7, §8
# SK-OV-3 = assay: Inhibition of cells growth by colorimetric assay (SRB), SK-OV-3; type: cell-based
# Procedure: as §2, §3, §4, §5, §6, §7, §8
# IGROV-ET = assay: Inhibition of cells growth by colorimetric assay (SRB), IGROV-ET; type: cell-based
# Procedure: as §2, §3, §4, §5, §6, §7, §8
# [1] = Homo sapiens, SK-MEL-28, 48 h, SRB assay, 48 hours exposure
# From the text for Kidney: (§9) Toxicity was asssessed by the methods reported in Toxicology in Vitro, 15 (2001) 571-577, J. Luber Narod et al.: “Evaluation of the use of in vitro methodolodies as tools for screening new compounds for potential in vivo toxicity”.
# From the text for Liver: as §9
# From the text for Skeletal: as §9
smiles,measurement,setting,value
COc1cc2c(cc1O)CCN(C)[C@]21CS[C@@H]2c3c(OC(C)=O)c(C)c4c(c3[C@H](COC1=O)N1C2[C@@H]2N[C@@H](Cc3cc(C)c(OC)c(O)c32)[C@@H]1O)OCO4 (stereo partly shown) [Compound 217],GI50,A-549,2.1 nM
same,LC50 (concentration for 50% cell killing),A-549,45.7 nM
same,A-549 TGI,A-549,6.16E-09
same,GI50,SK-MEL-28; [1],0.537 nM
same,Toxicity Data Skeletal,Skeletal,3.37E-12
same,GI50,HT-29,13.1 nM
same,LC50 (concentration for 50% cell killing),HT-29,13100 nM
same,HT-29 TGI,HT-29,1.31E-05
same,Toxicity Data Kidney,Kidney,2.66E-13
same,Toxicity Data Liver,Liver,1.07E-09
COc1cc2c(cc1O)CCN[C@]21CS[C@@H]2c3c(O)c(C)c4c(c3[C@H](COC1=O)N1C2[C@H]2c3c(cc(C)c(OC)c3O)C[C@@H]([C@@H]1O)N2C)OCO4 (stereo partly shown) [Et-701],GI50,A-549,2.99 nM
same,LC50 (concentration for 50% cell killing),A-549,13.9 nM
same,A-549 TGI,A-549,7.06E-09
same,GI50,"LNCaP; Homo sapiens, LNCaP, 48 h, read-out: LNCAP GI50, SRB assay, 48 hours exposure",0.324 nM
same,CC50,"LNCaP; Homo sapiens, LNCaP, 48 h, read-out: LNCAP LC50, SRB assay, 48 hours exposure",5.28 nM
same,LNCAP TGI,"LNCaP; SRB assay, 48 hours exposure",1.56E-09
same,GI50,SK-MEL-28; [1],9.74 nM
same,CC50,"SK-MEL-28; Homo sapiens, SK-MEL-28, 48 h, read-out: MEL-28 LC50, SRB assay, 48 hours exposure",122 nM
same,MEL-28 TGI,"SK-MEL-28; SRB assay, 48 hours exposure",3.50E-08
same,GI50,"LoVo-Dox; Homo sapiens, 48 h, SRB assay, 48 hours exposure, read-out: LOVO-DOX GI50",50.6 nM
same,CC50,"LoVo-Dox; Homo sapiens, 48 h, read-out: LOVO-DOX LC50, SRB assay, 48 hours exposure",13900 nM
same,LOVO-DOX TGI,"LoVo-Dox; SRB assay, 48 hours exposure",5.46E-07
same,GI50,"HMEC1; Homo sapiens, HMEC-1, 48 h, SRB assay, 48 hours exposure, read-out: HMEC-1 GI50",3.99 nM
same,LC50,"HMEC1; Homo sapiens, HMEC-1, 48 h, read-out: HMEC-1 LC50, SRB assay, 48 hours exposure",4570 nM
same,HMEC-1 TGI,"HMEC1; SRB assay, 48 hours exposure",1.35E-08
same,GI50,"IGROV-1; Homo sapiens, IGROV-1, 48 h, SRB assay, 48 hours exposure, read-out: IGROV GI50",2.33 nM
same,CC50,"IGROV-1; Homo sapiens, IGROV-1, 48 h, read-out: IGROV LC50, SRB assay, 48 hours exposure",11.1 nM
same,IGROV TGI,"IGROV-1; SRB assay, 48 hours exposure",5.08E-09
same,GI50,"SK-BR-3; Homo sapiens, SK-BR-3, 48 h, SRB assay, 48 hours exposure, read-out: SK-BR3 GI50",2.21 nM
same,CC50,"SK-BR-3; Homo sapiens, SK-BR-3, 48 h, read-out: SK-BR3 LC50, SRB assay, 48 hours exposure",27.5 nM
same,SK-BR3 TGI,"SK-BR-3; SRB assay, 48 hours exposure",6.25E-09
same,GI50,"DU-145; Homo sapiens, DU-145, 48 h, SRB assay, 48 hours exposure, read-out: DU-145 GI50",4.04 nM
same,CC50,"DU-145; Homo sapiens, DU-145, 48 h, read-out: DU-145 LC50, SRB assay, 48 hours exposure",2970 nM
same,DU-145 TGI,"DU-145; SRB assay, 48 hours exposure",9.70E-09
same,GI50,"K-562; Homo sapiens, K562, 48 h, SRB assay, 48 hours exposure, read-out: K-562 GI50",1.33 nM
same,LC50 (50% cell killing),"K-562; Homo sapiens, K562, 48 h, read-out: K-562 LC50, SRB assay, 48 hours exposure",11.3 nM
same,K-562 TGI,"K-562; SRB assay, 48 hours exposure",3.50E-09
same,GI50,"LoVo; Homo sapiens, LoVo, 48 h, SRB assay, 48 hours exposure, read-out: LOVO GI50",4.56 nM
same,LC50 (concentration for 50% cell killing),"LoVo; Homo sapiens, LoVo, 48 h, read-out: LOVO LC50, SRB assay, 48 hours exposure",3750 nM
same,LOVO TGI,"LoVo; SRB assay, 48 hours exposure",1.18E-08
same,GI50,"PANC-1; Homo sapiens, PANC-1, 48 h, SRB assay, 48 hours exposure, read-out: PANC-1 GI50",4.61 nM
same,LC50 (concentration for 50% net cell kill),"PANC-1; Homo sapiens, PANC-1, 48 h, read-out: PANC-1 LC50, SRB assay, 48 hours exposure",206 nM
same,PANC-1 TGI,"PANC-1; SRB assay, 48 hours exposure",1.19E-08
same,GI50,"SK-OV-3; Homo sapiens, SK-OV-3, 48 h, SRB assay, 48 hours exposure, read-out: SK-OV3 GI50",2.1 nM
same,LC50,"SK-OV-3; Homo sapiens, SK-OV-3, 48 h, read-out: SK-OV3 LC50, SRB assay, 48 hours exposure",9850 nM
same,SK-OV3 TGI,"SK-OV-3; SRB assay, 48 hours exposure",1.08E-08
same,GI50,"IGROV-ET; Homo sapiens, 48 h, SRB assay, 48 hours exposure, read-out: IGROV-ET GI50",16.4 nM
same,CC50,"IGROV-ET; Homo sapiens, 48 h, read-out: IGROV-ET LC50, SRB assay, 48 hours exposure",3750 nM
same,IGROV-ET TGI,"IGROV-ET; SRB assay, 48 hours exposure",7.78E-08
same,GI50,HT-29,4.24 nM
same,LC50 (concentration for 50% cell killing),HT-29,9560 nM
same,HT-29 TGI,HT-29,3.72E-08
